Test results published in patent publication US20030236218A1, “Aryl phosphate derivatives of d4T with selective activity against adenovirus and HIV” (priority 2002, published 2003).

Tests used:
Stability in whole blood = format: in vitro ADME
Protocol: The whole blood samples were placed in a 37° C. water bath, while plasma samples were stored at −20° C. At a predetermined time, an aliquot (100 μl) of spiked whole blood or plasma was extracted by adding 400 μl of acetone to induce precipitation of proteins, as described above.

[1] = Stability in simulated gastric fluid; format: in vitro ADME; settings: 100 μM, 37° C., 8 hours, listed as d4T-5′-[p-bromophenyl methoxyalaninyl phosphate]
Protocol: (§1) The spiked fluids were then placed in a 37° C. water bath. At a predetermined time, 100 μI aliquots of the spiked gastric or intestinal fluid were extracted by adding 400 μl of acetone as discussed above.

[2] = Stability in simulated intestinal fluid; format: in vitro ADME; settings: 100 μM, 37° C.
Protocol: as §1

[3] = Hydrolysis rate in alkali conditions; format: physicochemical
Protocol: Statistical analysis. Each drug was tested at 6-7 different concentrations ranging from 0.0001 μM to 100 μM. Each assay was set up in triplicate wells and repeated 1-3 times. An IC50 value was calculated from each set of triplicate wells using nonlinear regression modeling of the exponential form of the linearized equation (Statview, SAS Institute, Inc., Cary, N.C.). Hydrolysis rates were determined by fitting single exponential decay equations to the disappearance of the compound in alkali conditions (all R^2 values greater than 0.85). The IC50 values obtained were correlated to the log transformed hydrolysis rate constants by fitting a linear model (JMP Software, SAS Institute Inc., Cary, N.C.). P-values less than 0.05 were deemed significant.

[4] = mice, cited from earlier work
[5] = dogs; twice daily hard gelatin capsules 25 mg/kg -100 mg/kg; cumulative dose levels as high as 8.4 g/kg; cited from earlier work

COC(=O)C(C)NP(=O)(OC[C@@H]1C=C[C@H](n2cc(C)c(=O)[nH]c2=O)O1)Oc1ccc(Br)cc1 (stereo partly drawn) [Compound 113, 5′-[4-Bromophenyl methoxylaninylphosphate]-2′, 3′-didehydro-3′-deoxy thymidine]
time to complete decomposition in whole blood (Stability in whole blood; 250 μM, 37° C.): ≤ 30 min | decomposed in whole blood (Stability in whole blood; 250 μM, 37° C., 5 minutes): 68% | decomposed in whole blood (Stability in whole blood; 250 μM, 37° C., 10 minutes): 87% | decomposed in whole blood (Stability in whole blood; 250 μM, 37° C., 15 minutes): 92% | stability in whole blood (in words) (Stability in whole blood; spiked whole blood 37° C., 250 μM compound 113, 100 μM Ala-d4T-MP (followed for 1 day)): very unstable | stability in gastric fluid (in words) [1]: relatively stable | stability in intestinal fluid (in words) [2]: not stable | decomposed in intestinal fluid ([2]; within 2 hours): approximately 94% | Hydrolysis Rate [3]: 0.0210 min⁻¹ | toxicity on daily administration ([4]; intraperitoneally or orally for up to 8 consecutive weeks, cumulative dose levels as high as 6.4 g/kg): not associated with any detectable toxicity | acute or subacute toxicity ([4]; single intraperitoneal or oral bolus dose levels as high as 500 mg/kg): very well tolerated without any detectable acute or subacute toxicity | tolerability of four-week treatment course [5]: very well tolerated
